Experiments:
A2780 cells = test: Cellular Pt accumulation (accumulation ratio, ICP-MS) in A2780 cells; format: cell-based, human; conditions: A2780, 4 h CT, 10 μM
Procedure: A2780 and A2780cisR cells were seeded in 10 mm Petri dishes and challenged with complexes under investigation (10 μM) in a complete medium for 4 h. At the end of the exposure, cells were washed three times with PBS, detached from Petri dishes using 0.05% trypsin 1x + 2% EDTA (HyClone, Thermo Fisher), and harvested in a completely fresh medium. An automatic cell counting device (Countess®, Life Technologies) was used to measure the number and mean diameter of each cell necessary to calculate the mean cellular (spherical) volume.
For the analysis of Pt accumulation, cells were transferred to a borosilicate glass tube and centrifuged at 1100 rpm for 5 min at room temperature. The supernatant was carefully removed by aspiration, while approximately, 200 μL of the supernatant was left to limit cell loss. Cellular pellets were stored at −80°C until mineralization.
The determination of the platinum content was performed by ICP-MS (Thermo Optek X Series 2). Mineralization was carried out by adding 70% w/w HNO3 to each sample (after defrosting), followed by incubation for 1 h at 60°C in an ultrasonic bath. Before the ICP-MS measurement, HNO3 was diluted to a final concentration of 1%. The instrument settings were optimized to produce the highest platinum sensitivity, and the most abundant isotopes of Pt and In (used as an internal standard) were quantified at m/z 195 and 115, respectively.
The quantity of Pt found in cells and normalized on cell number (cellular Pt accumulation) was expressed as ng of Pt per 10^6 cells. The mean cellular volume, calculated from the actual mean cell diameter measured for each sample (about 12 μm), was used to obtain the volume of 10^6 cells and, finally, the intracellular Pt concentration. At treatment time zero, 100 μL of the medium was taken from each sample to verify the extracellular Pt concentration. The ratio between intracellular and the actual extracellular concentrations is defined as the accumulation ratio, AR [70]. The Pt content in the control experiment, which characterizes any possible Pt contamination during the overall process, was statistically insignificant with respect to the cellular Pt accumulated during treatment, even in the case of A2780cisR.
Experiments with the inhibitors were carried out at 37°C as follows: (i) NaN3 + 2-deoxy-D-glucose (2DG): preincubation for 30 min in PBS with 25 mM NaN3 and 25 mM 2DG, followed by a 10 μM CT with the Pt compounds in Earle's Balanced Salt Solution (EBSS) for 1 h; (ii) cimetidine (CMT): coincubation with 1.5 mM CMT and 10 μM Pt compounds in EBSS for 1 h; (iii) 1-methyl-4-phenylpyridin-1-ium (MPP^+): coincubation with 2.0 mM MPP^+ and 10 μM Pt compounds in EBSS for 1 h; (iv) cytochalasin D (CTD): preincubation for 30 min in EBSS with 10 μM CTD, followed by a 10 μM CT with the Pt compounds in EBSS for 1 h; (v) O-benzylserine (BS): coincubation with 1.0 mM BS and 10 μM Pt compounds in EBSS for 4 h; (vi) ouabain (OUA): preincubation for 1 h in EBSS with 1 mM OUA, followed by a 10 μM CT with the Pt compounds in EBSS for 4 h; (vii) tetraethylammonium chloride (TEA): preincubation for 1 h with 2.0 mM TEA followed by 10 μM Pt compounds in EBSS for 4 h. In the experiments at low temperature, A2780 cells were preincubated for 2 h at 4°C, followed by CT with each Pt compound (10 μM) for 4 h. In all cases, at the end of the CT, the cells were manipulated as described in the previous paragraphs.

HCT 116 = test: Resazurin reduction cell viability assay, HCT 116; format: cell-based, human; conditions: 72 h of treatment; mean ± sd
Procedure: (§1) The compounds under investigation were tested on a panel of commercial human cancer cell lines: ovarian endometrioid adenocarcinoma A2780 (ICLC HTL98008), its cisplatin-resistant variant A2780cisR (ECACC 93112517), colon carcinoma HCT 116 (ECACC 91091005), breast invasive ductal carcinoma MCF7 (ECACC 86012803), embryonal carcinoma NTERA-2 clone D1 (also known as NT2/D1, ICLC HTL97025), and lung adenocarcinoma A549 (ICLC HTL03001). Furthermore, a cell line derived from the pleural effusion of a patient with untreated malignant pleural mesothelioma (MPM) was added to the panel, namely, MM98 (sarcomatoid phenotype). Commercial cells were purchased from the European Collection of Authenticated Cell Cultures (ECACC, UK) or the Interlab Cell Line Collection (ICLC, Genoa, Italy), while the MM98 cell line was obtained from the Pathology Unit of the National Hospital of Alessandria (Italy).
The following media were used to grow the cells: RPMI 1640 (for A2780, A2780cisR, NT2/D1, and A549 cells), DMEM (for MCF7 cells), DMEM supplemented with nonessential amino acids (for MM98 cells), and McCoy's 5A (for HCT 116 cells). All media contained L-glutamine (2 mM) and were added with penicillin (100 IU·mL^−1), streptomycin (100 mg·L^−1), and 10% heat inactivated FBS. To maintain resistance in A2780cisR cells, cisplatin (1 μM) was added to the medium every two passages.
Continuous treatments (CT) were carried out at 37°C in a humidified chamber with 5% CO2. Cisplatin was dissolved in a 0.9% w/v NaCl aqueous solution and brought to pH = 3 with HCl (final stock concentration 1 mM). The Pt(IV) Complexes 1–3 were dissolved in milliQ water (final stock concentration 5 mM) and stored at −20°C. The stock concentration was confirmed with inductively coupled plasma-mass spectrometry (ICP-MS) measurements. The mother solutions were diluted in a complete medium to the required concentration.
(§2) To assess the growth inhibition of the compounds under investigation, a cell viability test (i.e., the resazurin reduction assay) was used. […] At the end of the treatment (72 h), viability was evaluated with 100 μg·mL^−1 resazurin (Acros Chemicals, France) in a fresh medium for 1 h at 37°C, and the amount of the reduced product, resorufin, was measured by fluorescence (excitation λ = 535 nm, emission λ = 595 nm) with a Tecan Infinite F200Pro plate reader (Tecan, Austria). In each experiment, cells were challenged with drug candidates at different concentrations, and the final data were calculated from at least three replicates of the same experiment performed in triplicate. The fluorescence of 8 wells containing a medium without cells was used as a blank. Fluorescence data were normalized to 100% cell viability for nontreated cells. […]

[1] = test system: panel of human cancer cell lines; test: Antiproliferative activity, panel of human cancer cell lines (average); format: cell-based; conditions: 72 h; for IC50: wild cell panel
Procedure: as §1
The following media were used to grow the cells: RPMI 1640 (for A2780, A2780cisR, NT2/D1, and A549 cells), DMEM (for MCF7 cells), DMEM supplemented with nonessential amino acids (for MM98 cells), and McCoy's 5A (for HCT 116 cells). […]
as §2

| Compound | ratio between AR 37°C and AR 4°C (A2780 cells) | accumulation ratio (AR) (A2780 cells; 37°C) | IC50 (HCT 116) [µM] | potency, times higher than those of 1 and 3 ([1]; panel of human cancer cell lines) | IC50 [1] [µM] |
| --- | --- | --- | --- | --- | --- |
| CC(=O)[O][Pt]([OH])([Cl])[Cl].N.N [Complex 2, (OC-6-44)-acetatodiamminedichloridohydroxidoplatinum(IV)] | increases hugely | higher AR at 4 h than 1 and 3, even higher than that of cisplatin | 1.46 ± 0.02 | 10–100 times | 2.91 |
| CC(=O)[O][Pt]([NH2])([NH2])([Cl])([Cl])[O]C(C)=O [Complex 3, (OC-6-33)-diamminedichloridodiacetatoplatinum(IV)] | 3.6 | – | 55.3 ± 1.69 | – | – |
| N.N.[OH][Pt]([OH])([Cl])[Cl] [Complex 1, (OC-6-33)-diamminedichloridodihydroxidoplatinum(IV)] | 3.2 | – | 22.9 ± 3.89 | – | – |
| N.N.[Cl][Pt][Cl] [Cisplatin, (SP-4-2)-diamminedichloridoplatinum(II)] | increases hugely | – | 2.3 ± 0.3 | – | 2.72 |

Source: PMC9822769, “The Strange Case: The Unsymmetric Cisplatin-Based Pt(IV) Prodrug [Pt(CH3COO)Cl2(NH3)2(OH)] Exhibits Higher Cytotoxic Activity with respect to Its Symmetric Congeners due to Carrier-Mediated Cellular Uptake” (Bioinorganic Chemistry and Applications, 2022)
